The values below come from patent US8507454B2, “Methods and unit dose formulations for the inhalation administration of aminoglycoside antibiotics” (priority 2001, dated 2013).

Data set [1] can be described thus: Example 3: sputum tobramycin pharmacokinetics. In kind it is in vivo. Particulars: both sexes, human, inhaled, both formulations (300 mg TOBI, 420 mg TSI), read-out: Individual estimates of sputum half-life, range. The procedure: A comparison was made of the safety, pharmacokinetics, aerosol delivery characteristics, and nebulization time of the conventional dose and inhalation delivery system (5 mL ampoule containing 300 mg tobramycin and 11.25 mg sodium chloride in sterile water for injection (TOBI® tobramycin solution for inhalation, Chiron Corporation, Seattle, Wash.), pH 6.0; administered with a PART LC PLUS™ jet nebulizer with a DeVilbiss PulmoAide™ compressor set to deliver an output pressure of 20 psi—the “control delivery system”) with a dose of 420 mg Tobramycin Solution for Inhalation at 120 mg/mL (excipient 3.5 mL of ¼ normal saline adjusted to a pH of 6.0±0.5; 420 mg in 3.5 mL) delivered by the PAM LC PLUS™ jet nebulizer with a Invacare MOBILAIRE™ compressor set to deliver an output pressure of 35 psi (the “experimental delivery system”). […]
Sputum Tobramycin Concentrations: Sputum samples were expectorated by patients from a deep cough and collected before day 1 dosing (predose) and at 0.25, 1, 2, 4, and 8 h after the end of the nebulization period. […] The concentration of tobramycin was analyzed using reversed-phase high-performance liquid chromatography (HPLC) with ultraviolet detection. […] After addition of 600 μL of 60/40 acetonitrile/water (v/v), 50 μL was analyzed by HPLC. […]

Data set [2] can be described thus: Example 3: serum tobramycin pharmacokinetics. The conditions noted are these: both sexes, human, inhaled, both formulations (300 mg TOBI, 420 mg TSI), read-out: Individual estimates of serum half-life, range. In kind it is in vivo. The protocol:
A comparison was made of the safety, pharmacokinetics, aerosol delivery characteristics, and nebulization time of the conventional dose and inhalation delivery system (5 mL ampoule containing 300 mg tobramycin and 11.25 mg sodium chloride in sterile water for injection (TOBI® tobramycin solution for inhalation, Chiron Corporation, Seattle, Wash.), pH 6.0; administered with a PART LC PLUS™ jet nebulizer with a DeVilbiss PulmoAide™ compressor set to deliver an output pressure of 20 psi—the “control delivery system”) with a dose of 420 mg Tobramycin Solution for Inhalation at 120 mg/mL (excipient 3.5 mL of ¼ normal saline adjusted to a pH of 6.0±0.5; 420 mg in 3.5 mL) delivered by the PAM LC PLUS™ jet nebulizer with a Invacare MOBILAIRE™ compressor set to deliver an output pressure of 35 psi (the “experimental delivery system”).
The study was designed as an open label, randomized, single-dose, multicenter, two treatment, active-control, and parallel trial. […]
Serum Tobramycin Concentrations: Blood samples were collected at predose and at 0.167, 1, 2, 4, 6, and 8 h after the end of the nebulization period. […] Concentrations of tobramycin in serum were analyzed with a modified fluorescence polarization immunoassay (FPIA) method using the Abbott TDx®/TDxFLx® System. […] The lower limit of quantitation was 0.050 μg/mL. […]

The subject of data set [3] is P. aeruginosa. Particulars: cited from earlier work.
Data set [4] is described as follows: Example 1: urine tobramycin recovery. Format: in vivo, human. Particulars: 7 days after prestudy or previous TOBI dose, LOQ 1.0 μg/mL. The protocol:
Urine specimens were collected and combined in a 24-hour collection container during the 12 hours before treatment (−12-0 hour period) and during 0-8 hour and 8-24 hour collection periods after treatment according to instructions provided in the Study Manual. Total urine volume for the collection period was recorded, and a 10 mL aliquot from each urine collection was retained and frozen for later analysis of urine tobramycin concentration.
The recovery of tobramycin in urine (in […]) during 0-8 hour and 8-24 hour collection periods was calculated as follows. urine tobramycin recovery (μg)=urine volume (mL)·urine tobramycin concentration (μg/mL)
Urine tobramycin recovery was normalized for each collection period according to TOBI dose as follows. dose-normalized urine tobramycin recovery (μg/mg)=[urine tobramycin recovery (μg)÷TOBI dose (mg)]
The percent of the TOBI dose excreted in urine in the 24-hour period following treatment was calculated as follows. % tobramycin excreted in urine =[(urinary recovery in μg÷1000 μg/mg)÷TOBI dose in mg]·100%.
Tobramycin concentrations in urine were measured by Abbott TDxFLx® assay [urine lower limit of quantitation (LOQ)=1.0 μg/mL].

The subject of data set [5] is Gram-negative bacteria. The conditions noted are these: Neu 1976; cited from earlier work.
In data set [6] the test system is P. aeruginosa isolates. Particulars: initial sputum cultures, Children's Hospital CF Center, Seattle, 1993; cited from earlier work.

Molecules are shown by their SMILES. Entries after “also recorded” stand apart in the source; their conditions may differ.

Regarding `NC[C@H]1O[C@H](O[C@H]2[C@H](O)[C@@H](O[C@H]3O[C@H](CO)[C@@H](O)[C@H](N)[C@H]3O)[C@H](N)C[C@@H]2N)[C@H](N)C[C@@H]1O` [tobramycin], the half-life was 0.48 to 9.47 h in data set [1] and 1.1 to 6.8 h in data set [2]. Also, in data set [3] (300 mg inhaled tobramycin twice daily, 28 days on/28 days off, Ramsey 1999), the “Average decrease in P. aeruginosa density, Week 0 to Week 20” value is given as 0.8 log10. For the same compound, the “Average decrease in P. aeruginosa density, Week 0 to Week 4” value in data set [3] (300 mg inhaled tobramycin twice daily, Ramsey 1999) is recorded as 1.9 log10. Besides, the “Sputum density of P. aeruginosa” value in data set [3] (600 mg tid aerosolized tobramycin, 71 CF patients, crossover trial, Ramsey 1993) is listed as “significant reduction”. Besides, the “Measurable predose urine tobramycin concentration during period listed, individual patients” value is recorded as “Per 1 - 1.82 μg/mL; also recorded: Per 1 - 3.14 μg/mL; also recorded: Per 1 - 1.74 μg/mL; also recorded: Per 1 - 2.72 μg/mL; also recorded: Per 1 - 3.80 μg/mL” in data set [4] (after prestudy tobramycin); “Per 3 - 1.20 μg/mL” in data set [4] (after previous TOBI 30 mg); “Per 3 - 1.30 μg/mL; also recorded: Per 3 - 13.22 μg/mL” in data set [4] (after previous TOBI 60 mg); “Per 2 - 3.10 μg/mL” in data set [4] (after previous TOBI 90 mg); “Per 2 - 2.06 μg/mL; also recorded: Per 2 - 2.58 μg/mL; also recorded: Per 2 - 1.48 μg/mL; also recorded: Per 2 - 1.58 μg/mL; also recorded: Per 2 - 2.28 μg/mL; also recorded: Per 3 - 2.70 μg/mL; also recorded: Per 3 - 1.16 μg/mL; also recorded: Per 3^c - 1.12 μg/mL; also recorded: Per 3 - 2.08 μg/mL” in data set [4] (after previous TOBI 300 mg). The “Concentrations effective in inhibiting the growth of many Gram-negative bacteria” value in data set [5] was under 4 µg/mL. The “MICs of 90% of isolates” value in data set [6] is at most 16 µg/mL. Also, the “MICs of 98% of all isolates” value in data set [6] was at most 128 µg/mL.
